Laboratory results: US20090241222A1, “TANDEM REAPEAT DNA CONSTRUCTS PRODUCING PROTEINS THAT ATTACK PLANT PATHOGENIC VIRUSES, FUNGI, AND BACTERIA BY DISRUPTING TRANSCRIPTION FACTORS ESSENTIAL FOR REPLICATION THEREOF IN PLANTS” (priority 2008, published 2009)
Entries after “also recorded” stand apart in the source; their conditions may differ. Like-named read-outs stand apart in the source and are kept apart here.

Legend:
[1] = tested on: tomato spotted wilt virus; conditions: tomato and tobacco plants; cited from earlier work
[2] = tested on: Arabidopsis thaliana; conditions: cited from earlier work
[3] = tested on: SV40 transformed BALB-3T3 cells; conditions: cited from earlier work
[4] = tested on: HSV-2; conditions: tissue culture and animals; cited from earlier work
[5] = tested on: Orobanche ramosa; conditions: Arabidopsis thaliana pre-treated with FU; cited from earlier work
[6] = tested on: Arabidopsis thaliana; conditions: in vivo; cited from earlier work
[7] = tested on: HIV-1, Hepatitis C and numerous other viruses as well as the host cells; experiment: Fate of virus-infected host cells after treatment; type: cell-based
Description: APOPTOSIS. Apoptosis is a morphological pattern of cell injury and an important mode of cell death (Robbins, Pathological Basis of Disease, 1999, 6th Ed). Apoptosis shares and overlaps common mechanisms with necrosis. […] This form of cell death is designed to eliminate defective, unwanted and damaged cells. For example, the inventors have shown that cells infected by Herpes Simplex Virus 1 (HSV; labialis) and HSV-2 genitalis are destroyed together with the host cells that they infected by apoptosis when exposed to pyridine carboxylates (Fernandez-Pol, Anticancer Res. 2002). […] Thus, the inventors believes that when host cells of animals or plants are infected by pathogenic viruses, unless the treatment is extremely quickly, the host cells and the virus will be destroyed. In fact, host cells defective, mutated, and reservoirs for the novo synthesis of viruses are unwanted host cells and must be eliminated in many instances to allow the survival of the organism.

[8] = target: T1, recombinant MPS-1 (CCCC zinc finger) (Homo sapiens, UniProt P42677); experiment: Gel shift assay and radioactive Zn65 removal from recombinant MPS-1; type: biochemical
T1 construct: made in house
Description: MPS-1 is a ubiquitous tumor marker and cell growth stimulator and is described in detail in the inventors' U.S. Pat. No. 5,243,041. MPS-1 has one zinc finger domain of the type CCCC. […] This is detected by a change in the electrophoretic mobility of MPS-1 under non-denaturing conditions. These experiments indicate that picolinic acid and derivatives should remove zinc and denature various types of zinc finger, zinc ring proteins, or other types of ZF motifs whether known or heretofore undiscovered, including animal or plant viral proteins such as nucleocapsid proteins of retrovirus or the nucleocapsid proteins of Geminivirus. Furthermore, the inventors have determined that any chemical compound, whether known or heretofore undiscovered, that will remove the zinc (or other metal) and denature the proteins or that will form a ternary complex (protein-zinc-chelator) can be effective as an antiviral agent, with nontoxic effects, provided that the agent conforms with certain specific structural requirements.

[9] = tested on: Common ornamental plant cells infected by viruses; experiment: Treatment of virus-infected ornamental plants; conditions: viral strains not determined
[10] = tested on: HSV-1; conditions: tissue culture and animals; cited from earlier work
[11] = tested on: Mammalian rotaviruses; conditions: millimolar concentrations; cited from earlier work
[12] = tested on: mammalian retroviruses; conditions: millimolar concentrations; cited from earlier work
[13] = tested on: marker defense genes PR-1, PR-2 and PDF1.2; conditions: dose-dependent and time dependent; cited from earlier work
[14] = tested on: virally-transformed cells; conditions: cited from earlier work
[15] = tested on: NRK cells; conditions: cells treated with picolinic acid; cited from earlier work
[16] = tested on: normal cells (NRK, BALB 3T3); conditions: cited from earlier work
[17] = tested on: cells (iron incorporation); conditions: cited from earlier work
[18] = tested on: rice; conditions: in vivo; cited from earlier work

SMILES: NC(=O)c1ncn([C@@H]2O[C@H](CO)[C@@H](O)[C@H]2O)n1 [Virazole (Ribavirin)]
- use against tomato spotted wilt virus [1]: successfully used

SMILES: COS(C)(=O)=O [MMS, Methyl Methane Sulphonate]
- growth and size of the plant ([2]; ars27A mutant, 3 weeks): strongly inhibited
- growth and size of the plant ([2]; wild type, same concentrations): not affecting

SMILES: NC(=O)c1cccnc1 [Nicotinamide, reference compound]
- effect on cell growth or apoptosis ([3]; at 48 h): no effect

SMILES: CCCCc1ccc(C(=O)O)nc1 [fusaric acid, 5-butyl picolinic acid]
- efficacy against viral infection by HSV-2 [4]: effective
- germination of the angiosperm parasite [5]: inhibited
- concentration eliciting plant defense responses without toxic effects [6]: 100 nM
- concentrations that reduced root growth and induced membrane hyperpolarization/depolarization [6]: > 500 µM
- fate of viruses and host cells after treatment [7]: Death by apoptosis
- removal of zinc (radioactive Zn65) from CCCC zinc finger of MPS-1 [8]: remove radioactive Zn65 from MPS-1; also recorded: remove zinc
- zinc dependent binding of recombinant MPS-1 to DNA (gel shift assays) [8]: inhibit the zinc dependent binding of recombinant MPS-1 to DNA
- outcome of treatment of virus-infected ornamental plants [9]: positive results
- efficacy against viral infection by HSV-1 [10]: effective

SMILES: O=C(O)CN(CCOCCOCCN(CC(=O)O)CC(=O)O)CC(=O)O [EGTA]
- disintegration of viral membranes and release of Zinc Finger Proteins [11]: partial disintegration of the viral membranes
- disintegration of viral membranes (release of reverse transcriptase) [12]: partial disintegration of viral membranes

SMILES: O=C(O)c1ccccn1 [picolinic acid, 2-pyridine carboxylic acid]
- induction of marker defense genes PR-1, PR-2 and PDF1.2 [13]: all induced
- cell cycle arrest, Flow Microfluorometric Analysis of DNA ([14]; Kirsten sarcoma virus transformed cells): G1 phase
- cytotoxicity in transformed cells ([14]; longer exposure/further incubation): cytotoxicity and cell death was observed in all transformed cells; also recorded: cell death by apoptosis was observed in all transformed cells
- potency of prostaglandin E1 in elevating cyclic AMP [15]: two to five times more potent
- toxicity to normal cells [16]: no toxic effects
- incorporation of iron into the cells [17]: inhibits incorporation of iron into the cells
- removal of radioiron from the cells [17]: effectively removes radioiron from the cells
- hypersensitive response (HR) [18]: elicit the hypersensitive response (HR)
- mitochondrial cytochrome c release ([3]; 3 mM picolinic acid): released cytochrome c
- fate of viruses and host cells after treatment [7]: Death by apoptosis
- removal of zinc (radioactive Zn65) from CCCC zinc finger of MPS-1 [8]: remove radioactive Zn65 from MPS-1; also recorded: remove zinc
- zinc dependent binding of recombinant MPS-1 to DNA (gel shift assays) [8]: inhibit the zinc dependent binding of recombinant MPS-1 to DNA
- outcome of treatment of virus-infected ornamental plants [9]: positive results

SMILES: O=C(O)CN(CCN(CC(=O)O)CC(=O)O)CC(=O)O [EDTA]
- disintegration of viral membranes and release of Zinc Finger Proteins [11]: partial disintegration of the viral membranes
- disintegration of viral membranes (release of reverse transcriptase) [12]: partial disintegration of viral membranes
